Results as given in the kinase profiling compilation of Christmann-Franck et al. (2016).

Columns and labels:
Test in all cases: radiometric filter-binding kinase assay
RPS6KA1 KD1 KD2 (human) = RPS6KA1 KD1 KD2 (human) (UniProt Q15418)
MAPK10 (human) = MAPK10 (human) (UniProt P53779)
MAPKAPK2 (human) = MAPKAPK2 (human) (UniProt P49137)
EPHB4 (human) = EPHB4 (human) (UniProt P54760)
MAPK3 (human) = MAPK3 (human) (UniProt P27361)
[1] = target: STK11 CAB39 STRADA (human) (UniProt Q9Y376+Q7RTN6+Q15831)
PHKG1 (human) = PHKG1 (human) (UniProt Q16816)
[2] = tested on: AKT2 (human), P31751 [S474D]
MAPK9 (human) = MAPK9 (human) (UniProt P45984)
CHEK2 (human) = CHEK2 (human) (UniProt O96017)
IGF1R (human) = IGF1R (human) (UniProt P08069)
MAPK15 (human) = MAPK15 (human) (UniProt Q8TD08)
Sequence of MAPK15 (human) (Q8TD08 whole entry, looked up): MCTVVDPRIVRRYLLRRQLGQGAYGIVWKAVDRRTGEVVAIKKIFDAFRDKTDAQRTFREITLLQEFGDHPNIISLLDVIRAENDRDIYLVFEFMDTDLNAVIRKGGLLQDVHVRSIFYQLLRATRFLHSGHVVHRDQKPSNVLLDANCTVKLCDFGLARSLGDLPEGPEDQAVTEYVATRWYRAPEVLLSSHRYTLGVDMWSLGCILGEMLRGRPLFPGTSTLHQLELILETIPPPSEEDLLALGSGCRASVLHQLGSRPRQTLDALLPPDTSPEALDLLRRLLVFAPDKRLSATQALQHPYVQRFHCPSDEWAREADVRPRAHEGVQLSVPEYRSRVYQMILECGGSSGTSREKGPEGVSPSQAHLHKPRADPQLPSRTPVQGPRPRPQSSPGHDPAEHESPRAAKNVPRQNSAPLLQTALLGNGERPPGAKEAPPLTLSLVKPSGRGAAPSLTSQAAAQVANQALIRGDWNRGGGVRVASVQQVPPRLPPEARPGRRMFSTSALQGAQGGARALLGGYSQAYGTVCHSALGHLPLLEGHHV

IKBKB (human) = IKBKB (human) (UniProt O14920)
Sequence of IKBKB (human) (O14920 whole entry, looked up): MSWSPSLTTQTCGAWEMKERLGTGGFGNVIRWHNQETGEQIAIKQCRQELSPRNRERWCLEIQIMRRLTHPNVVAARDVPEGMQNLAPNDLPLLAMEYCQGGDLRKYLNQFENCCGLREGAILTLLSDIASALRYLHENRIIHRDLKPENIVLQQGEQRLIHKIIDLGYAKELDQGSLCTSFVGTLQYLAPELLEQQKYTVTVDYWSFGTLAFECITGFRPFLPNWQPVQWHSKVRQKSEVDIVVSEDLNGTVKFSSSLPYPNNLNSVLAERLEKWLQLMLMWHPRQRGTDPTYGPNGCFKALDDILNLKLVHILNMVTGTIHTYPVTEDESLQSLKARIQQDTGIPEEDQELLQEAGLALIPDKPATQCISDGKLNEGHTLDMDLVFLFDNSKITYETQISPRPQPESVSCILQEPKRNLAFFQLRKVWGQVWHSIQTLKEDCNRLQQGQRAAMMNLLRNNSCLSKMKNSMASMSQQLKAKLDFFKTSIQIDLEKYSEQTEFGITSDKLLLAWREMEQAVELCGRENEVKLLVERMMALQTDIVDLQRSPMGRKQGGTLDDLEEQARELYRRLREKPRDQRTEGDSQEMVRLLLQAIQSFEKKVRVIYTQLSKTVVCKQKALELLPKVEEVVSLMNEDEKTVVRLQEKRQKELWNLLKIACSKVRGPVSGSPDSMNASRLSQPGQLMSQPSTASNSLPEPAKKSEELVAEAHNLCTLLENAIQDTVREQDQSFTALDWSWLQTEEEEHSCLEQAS

MAP2K1 (human) = MAP2K1 (human) (UniProt Q02750)
MINK1 (human) = MINK1 (human) (UniProt Q8N4C8)
PRKACA (human) = PRKACA (human) (UniProt P17612)
MARK2 (human) = MARK2 (human) (UniProt Q7KZI7)
PIM2 (human) = PIM2 (human) (UniProt Q9P1W9)
Sequence of PIM2 (human) (Q9P1W9 whole entry, looked up): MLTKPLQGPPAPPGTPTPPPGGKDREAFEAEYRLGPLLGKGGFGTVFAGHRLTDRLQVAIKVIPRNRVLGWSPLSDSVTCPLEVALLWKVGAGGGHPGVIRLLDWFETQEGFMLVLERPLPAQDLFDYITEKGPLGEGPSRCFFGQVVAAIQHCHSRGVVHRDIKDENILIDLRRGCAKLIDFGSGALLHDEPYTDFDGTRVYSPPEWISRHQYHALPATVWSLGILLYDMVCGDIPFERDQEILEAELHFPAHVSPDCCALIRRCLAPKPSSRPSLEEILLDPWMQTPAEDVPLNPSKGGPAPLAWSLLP

MKNK2 (human) = MKNK2 (human) (UniProt Q9HBH9)
AURKB (human) = AURKB (human) (UniProt Q96GD4)
Sequence of AURKB (human) (Q96GD4 whole entry, looked up): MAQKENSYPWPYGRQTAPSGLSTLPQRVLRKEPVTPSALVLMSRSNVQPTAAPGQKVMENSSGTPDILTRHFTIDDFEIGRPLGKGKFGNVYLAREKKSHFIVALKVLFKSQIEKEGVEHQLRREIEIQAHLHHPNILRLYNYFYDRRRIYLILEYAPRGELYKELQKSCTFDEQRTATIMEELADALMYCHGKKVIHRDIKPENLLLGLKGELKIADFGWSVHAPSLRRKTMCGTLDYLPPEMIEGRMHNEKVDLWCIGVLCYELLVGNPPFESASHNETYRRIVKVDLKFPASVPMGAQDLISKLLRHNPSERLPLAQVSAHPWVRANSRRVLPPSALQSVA

YES1 (human) = YES1 (human) (UniProt P07947)
PRKAA1 or PRKAA2 (rat) = conditions: accession and sequence are those of the human protein
GCK (human) = GCK (human) (UniProt Q12851)
PKN2 (human) = PKN2 (human) (UniProt Q16513)
CHEK1 (human) = CHEK1 (human) (UniProt O14757)
Sequence of CHEK1 (human) (O14757 whole entry, looked up): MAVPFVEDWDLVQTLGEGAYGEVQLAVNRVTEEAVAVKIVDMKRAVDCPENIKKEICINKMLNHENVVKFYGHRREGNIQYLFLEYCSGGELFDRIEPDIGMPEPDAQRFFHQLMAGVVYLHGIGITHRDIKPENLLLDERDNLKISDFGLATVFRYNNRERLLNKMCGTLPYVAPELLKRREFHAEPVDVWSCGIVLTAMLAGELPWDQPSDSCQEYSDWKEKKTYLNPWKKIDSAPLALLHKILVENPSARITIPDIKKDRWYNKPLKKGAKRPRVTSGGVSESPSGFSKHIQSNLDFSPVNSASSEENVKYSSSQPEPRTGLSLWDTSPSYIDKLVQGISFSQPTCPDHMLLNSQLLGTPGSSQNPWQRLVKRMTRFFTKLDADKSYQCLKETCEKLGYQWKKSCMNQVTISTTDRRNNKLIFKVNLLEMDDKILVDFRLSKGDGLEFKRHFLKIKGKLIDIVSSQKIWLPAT

MAP3K1 (human) = MAP3K1 (human) (UniProt Q13233)
NEK2 (human) = NEK2 (human) (UniProt P51955)
MAP3K5 (human) = MAP3K5 (human) (UniProt Q99683)
MAPK1 (human) = MAPK1 (human) (UniProt P28482)
Sequence of MAPK1 (human) (P28482 whole entry, looked up): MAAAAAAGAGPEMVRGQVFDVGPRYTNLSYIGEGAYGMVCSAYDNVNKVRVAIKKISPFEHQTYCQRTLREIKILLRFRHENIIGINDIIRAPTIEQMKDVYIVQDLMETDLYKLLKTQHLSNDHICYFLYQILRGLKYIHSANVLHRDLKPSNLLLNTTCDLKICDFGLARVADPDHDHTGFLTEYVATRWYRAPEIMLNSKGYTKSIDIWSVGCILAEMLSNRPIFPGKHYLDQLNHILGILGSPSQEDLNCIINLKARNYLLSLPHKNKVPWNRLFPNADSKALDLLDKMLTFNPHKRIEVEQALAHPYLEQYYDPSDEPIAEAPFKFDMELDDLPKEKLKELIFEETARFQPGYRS

NTRK1 (human) = NTRK1 (human) (UniProt P04629)
PRKCA (human) = PRKCA (human) (UniProt P17252)
SRC (human) = SRC (human) (UniProt P12931)
MKNK1 (human) = MKNK1 (human) (UniProt Q9BUB5)
Sequence of MKNK1 (human) (Q9BUB5 whole entry, looked up): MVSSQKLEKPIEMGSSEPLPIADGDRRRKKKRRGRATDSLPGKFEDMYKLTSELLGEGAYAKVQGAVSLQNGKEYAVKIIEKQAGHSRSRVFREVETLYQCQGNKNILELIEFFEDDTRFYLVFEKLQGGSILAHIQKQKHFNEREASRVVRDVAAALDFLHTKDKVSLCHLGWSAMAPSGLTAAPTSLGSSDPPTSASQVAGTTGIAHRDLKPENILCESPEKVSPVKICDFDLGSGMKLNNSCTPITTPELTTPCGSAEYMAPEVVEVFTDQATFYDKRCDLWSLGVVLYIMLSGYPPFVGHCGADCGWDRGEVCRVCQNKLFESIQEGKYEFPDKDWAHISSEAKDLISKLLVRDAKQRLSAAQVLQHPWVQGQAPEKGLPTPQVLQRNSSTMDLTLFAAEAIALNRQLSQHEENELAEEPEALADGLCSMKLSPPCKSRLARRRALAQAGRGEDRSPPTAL

CAMKK2 (human) = CAMKK2 (human) (UniProt Q96RR4)
Sequence of CAMKK2 (human) (Q96RR4 whole entry, looked up): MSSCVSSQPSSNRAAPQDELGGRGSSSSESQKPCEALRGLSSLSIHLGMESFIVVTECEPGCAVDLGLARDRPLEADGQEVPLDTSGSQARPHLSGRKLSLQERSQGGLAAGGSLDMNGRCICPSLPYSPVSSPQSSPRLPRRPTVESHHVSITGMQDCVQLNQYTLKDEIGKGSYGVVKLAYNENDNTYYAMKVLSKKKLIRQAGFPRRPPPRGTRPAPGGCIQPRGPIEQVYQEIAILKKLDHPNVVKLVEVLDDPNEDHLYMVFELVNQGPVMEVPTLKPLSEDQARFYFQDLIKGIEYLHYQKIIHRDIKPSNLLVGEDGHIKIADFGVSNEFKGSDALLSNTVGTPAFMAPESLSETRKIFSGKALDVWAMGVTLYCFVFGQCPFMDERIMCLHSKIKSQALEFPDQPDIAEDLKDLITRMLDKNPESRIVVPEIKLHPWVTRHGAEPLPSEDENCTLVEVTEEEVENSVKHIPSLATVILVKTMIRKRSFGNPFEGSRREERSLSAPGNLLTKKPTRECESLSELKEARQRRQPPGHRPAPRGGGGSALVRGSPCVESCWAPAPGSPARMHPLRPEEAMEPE

STK3 (human) = STK3 (human) (UniProt Q13188)

Sequence of MAPK3 (human) (P27361 whole entry, looked up): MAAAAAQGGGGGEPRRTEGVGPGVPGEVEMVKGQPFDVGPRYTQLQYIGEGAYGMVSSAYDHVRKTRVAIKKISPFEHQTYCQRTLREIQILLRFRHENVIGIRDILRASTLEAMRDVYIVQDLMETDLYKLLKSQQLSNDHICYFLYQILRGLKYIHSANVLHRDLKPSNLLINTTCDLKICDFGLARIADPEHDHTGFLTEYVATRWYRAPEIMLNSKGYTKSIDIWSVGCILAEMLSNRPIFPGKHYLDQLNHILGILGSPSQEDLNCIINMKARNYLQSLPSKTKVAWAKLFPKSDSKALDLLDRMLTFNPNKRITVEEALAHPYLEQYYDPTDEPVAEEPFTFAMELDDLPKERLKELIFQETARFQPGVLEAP
Sequence of RPS6KA1 KD1 KD2 (human) (Q15418 whole entry, looked up): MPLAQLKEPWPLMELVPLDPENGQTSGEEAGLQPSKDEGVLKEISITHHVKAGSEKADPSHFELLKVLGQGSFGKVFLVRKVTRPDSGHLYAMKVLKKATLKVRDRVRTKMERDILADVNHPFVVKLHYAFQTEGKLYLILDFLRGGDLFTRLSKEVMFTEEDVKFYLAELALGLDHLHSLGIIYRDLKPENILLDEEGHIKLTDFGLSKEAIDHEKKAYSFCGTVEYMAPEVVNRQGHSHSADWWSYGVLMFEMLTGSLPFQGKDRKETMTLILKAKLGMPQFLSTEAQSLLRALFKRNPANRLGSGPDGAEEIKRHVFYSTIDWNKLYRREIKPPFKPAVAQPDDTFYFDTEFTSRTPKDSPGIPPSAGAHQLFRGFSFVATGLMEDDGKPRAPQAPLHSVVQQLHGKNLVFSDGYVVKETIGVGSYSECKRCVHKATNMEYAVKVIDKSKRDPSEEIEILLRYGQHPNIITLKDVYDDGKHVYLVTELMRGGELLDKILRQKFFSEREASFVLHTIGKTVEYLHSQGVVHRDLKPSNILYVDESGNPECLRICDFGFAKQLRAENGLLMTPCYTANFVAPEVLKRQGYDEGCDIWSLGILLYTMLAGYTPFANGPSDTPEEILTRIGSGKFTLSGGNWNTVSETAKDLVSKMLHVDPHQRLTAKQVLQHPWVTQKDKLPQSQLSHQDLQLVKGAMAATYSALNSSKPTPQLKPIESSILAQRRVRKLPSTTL

NC(=O)c1cc(-c2ccnc(NC3CCCCC3)c2)nc(N2CCNCC2)c1
residual activity (RPS6KA1 KD1 KD2 (human); compound 0.1 µM): 88%
residual activity (RPS6KA1 KD1 KD2 (human); compound 1.0 µM): 53%
residual activity (RPS6KA1 KD1 KD2 (human); compound 10.0 µM): 2%
residual activity (MAPK10 (human); compound 0.1 µM): 88%
residual activity (MAPK10 (human); compound 1.0 µM): 79%
residual activity (MAPK10 (human); compound 10.0 µM): 31%
residual activity (MAPKAPK2 (human); compound 0.1 µM): 99%
residual activity (MAPKAPK2 (human); compound 1.0 µM): 72%
residual activity (MAPKAPK2 (human); compound 10.0 µM): 22%
residual activity (EPHB4 (human); compound 0.1 µM): 103%
residual activity (EPHB4 (human); compound 10.0 µM): 91%
residual activity (MAPK3 (human); compound 0.1 µM): 78%
residual activity (MAPK3 (human); compound 1.0 µM): 34%
residual activity (MAPK3 (human); compound 10.0 µM): 10%
residual activity ([1]; compound 0.1 µM): 77%
residual activity ([1]; compound 10.0 µM): 71%
residual activity (PHKG1 (human); compound 0.1 µM): 82%
residual activity (PHKG1 (human); compound 1.0 µM): 29%
residual activity (PHKG1 (human); compound 10.0 µM): 5%
residual activity ([2]; compound 0.1 µM): 97%
residual activity ([2]; compound 1.0 µM): 57%
residual activity ([2]; compound 10.0 µM): 3%
residual activity (MAPK9 (human); compound 0.1 µM): 91%
residual activity (MAPK9 (human); compound 10.0 µM): 35%
residual activity (CHEK2 (human); compound 0.1 µM): 102%
residual activity (CHEK2 (human); compound 1.0 µM): 106%
residual activity (CHEK2 (human); compound 10.0 µM): 88%
residual activity (IGF1R (human); compound 0.1 µM): 97%
residual activity (IGF1R (human); compound 1.0 µM): 102%
residual activity (IGF1R (human); compound 10.0 µM): 99%
residual activity (MAPK15 (human); compound 0.1 µM): 63%
residual activity (MAPK15 (human); compound 1.0 µM): 26%
residual activity (MAPK15 (human); compound 10.0 µM): 4%
residual activity (IKBKB (human); compound 0.1 µM): 85%
residual activity (IKBKB (human); compound 1.0 µM): 50%
residual activity (IKBKB (human); compound 10.0 µM): 23%
residual activity (MAP2K1 (human); compound 0.1 µM): 86%
residual activity (MAP2K1 (human); compound 1.0 µM): 77%
residual activity (MAP2K1 (human); compound 10.0 µM): 49%
residual activity (MINK1 (human); compound 0.1 µM): 65%
residual activity (MINK1 (human); compound 1.0 µM): 13%
residual activity (MINK1 (human); compound 10.0 µM): 2%
residual activity (PRKACA (human); compound 0.1 µM): 105%
residual activity (PRKACA (human); compound 1.0 µM): 109%
residual activity (PRKACA (human); compound 10.0 µM): 93%
residual activity (MARK2 (human); compound 0.1 µM): 97%
residual activity (MARK2 (human); compound 1.0 µM): 63%
residual activity (MARK2 (human); compound 10.0 µM): 31%
residual activity (PIM2 (human); compound 0.1 µM): 99%
residual activity (PIM2 (human); compound 1.0 µM): 102%
residual activity (PIM2 (human); compound 10.0 µM): 99%
residual activity (MKNK2 (human); compound 0.1 µM): 76%
residual activity (MKNK2 (human); compound 1.0 µM): 31%
residual activity (MKNK2 (human); compound 10.0 µM): 6%
residual activity (AURKB (human); compound 0.1 µM): 132%
residual activity (AURKB (human); compound 1.0 µM): 117%
residual activity (AURKB (human); compound 10.0 µM): 115%
residual activity (YES1 (human); compound 0.1 µM): 107%
residual activity (YES1 (human); compound 1.0 µM): 94%
residual activity (YES1 (human); compound 10.0 µM): 76%
residual activity (PRKAA1 or PRKAA2 (rat); compound 0.1 µM): 97%
residual activity (PRKAA1 or PRKAA2 (rat); compound 1.0 µM): 61%
residual activity (PRKAA1 or PRKAA2 (rat); compound 10.0 µM): 20%
residual activity (GCK (human); compound 0.1 µM): 41%
residual activity (GCK (human); compound 1.0 µM): 82%
residual activity (GCK (human); compound 10.0 µM): 44%
residual activity (PKN2 (human); compound 0.1 µM): 96%
residual activity (PKN2 (human); compound 1.0 µM): 66%
residual activity (PKN2 (human); compound 10.0 µM): 19%
residual activity (CHEK1 (human); compound 1.0 µM): 100%
residual activity (CHEK1 (human); compound 10.0 µM): 70%
residual activity (MAP3K1 (human); compound 0.1 µM): 115%
residual activity (MAP3K1 (human); compound 10.0 µM): 102%
residual activity (NEK2 (human); compound 0.1 µM): 111%
residual activity (NEK2 (human); compound 1.0 µM): 129%
residual activity (NEK2 (human); compound 10.0 µM): 113%
residual activity (MAP3K5 (human); compound 0.1 µM): 98%
residual activity (MAP3K5 (human); compound 1.0 µM): 84%
residual activity (MAP3K5 (human); compound 10.0 µM): 21%
residual activity (MAPK1 (human); compound 0.1 µM): 36%
residual activity (MAPK1 (human); compound 1.0 µM): 29%
residual activity (MAPK1 (human); compound 10.0 µM): 6%
residual activity (NTRK1 (human); compound 0.1 µM): 72%
residual activity (NTRK1 (human); compound 10.0 µM): 71%
residual activity (PRKCA (human); compound 0.1 µM): 97%
residual activity (PRKCA (human); compound 1.0 µM): 95%
residual activity (PRKCA (human); compound 10.0 µM): 90%
residual activity (SRC (human); compound 0.1 µM): 106%
residual activity (SRC (human); compound 1.0 µM): 90%
residual activity (SRC (human); compound 10.0 µM): 66%
residual activity (MKNK1 (human); compound 0.1 µM): 95%
residual activity (MKNK1 (human); compound 1.0 µM): 38%
residual activity (MKNK1 (human); compound 10.0 µM): 7%
residual activity (CAMKK2 (human); compound 0.1 µM): 85%
residual activity (CAMKK2 (human); compound 1.0 µM): 99%
residual activity (CAMKK2 (human); compound 10.0 µM): 62%
residual activity (STK3 (human); compound 0.1 µM): 103%
residual activity (STK3 (human); compound 1.0 µM): 110%
residual activity (STK3 (human); compound 10.0 µM): 98%

Cc1ccc(=O)n(-c2ccccc2)c1
residual activity (RPS6KA1 KD1 KD2 (human); compound 1.0 µM): 107%
residual activity (RPS6KA1 KD1 KD2 (human); compound 10.0 µM): 114%
residual activity (MAPK10 (human); compound 1.0 µM): 83%
residual activity (MAPK10 (human); compound 10.0 µM): 86%
residual activity (MAPKAPK2 (human); compound 1.0 µM): 108%
residual activity (MAPKAPK2 (human); compound 10.0 µM): 93%
residual activity (EPHB4 (human); compound 1.0 µM): 112%
residual activity (EPHB4 (human); compound 10.0 µM): 120%
residual activity (MAPK3 (human); compound 1.0 µM): 125%
residual activity (MAPK3 (human); compound 10.0 µM): 115%
residual activity ([1]; compound 1.0 µM): 103%
residual activity ([1]; compound 10.0 µM): 95%
residual activity (PHKG1 (human); compound 1.0 µM): 103%
residual activity (PHKG1 (human); compound 10.0 µM): 96%
residual activity ([2]; compound 1.0 µM): 99%
residual activity ([2]; compound 10.0 µM): 91%
residual activity (MAPK9 (human); compound 1.0 µM): 85%
residual activity (MAPK9 (human); compound 10.0 µM): 86%
residual activity (CHEK2 (human); compound 1.0 µM): 119%
residual activity (CHEK2 (human); compound 10.0 µM): 97%
residual activity (IGF1R (human); compound 1.0 µM): 105%
residual activity (IGF1R (human); compound 10.0 µM): 102%
residual activity (MAPK15 (human); compound 1.0 µM): 95%
residual activity (MAPK15 (human); compound 10.0 µM): 86%
residual activity (IKBKB (human); compound 1.0 µM): 87%
residual activity (IKBKB (human); compound 10.0 µM): 88%
residual activity (MAP2K1 (human); compound 1.0 µM): 77%
residual activity (MAP2K1 (human); compound 10.0 µM): 65%
residual activity (MINK1 (human); compound 1.0 µM): 106%
residual activity (MINK1 (human); compound 10.0 µM): 108%
residual activity (PRKACA (human); compound 1.0 µM): 90%
residual activity (PRKACA (human); compound 10.0 µM): 97%
residual activity (MARK2 (human); compound 1.0 µM): 104%
residual activity (MARK2 (human); compound 10.0 µM): 102%
residual activity (PIM2 (human); compound 1.0 µM): 118%
residual activity (PIM2 (human); compound 10.0 µM): 96%
residual activity (MKNK2 (human); compound 1.0 µM): 90%
residual activity (MKNK2 (human); compound 10.0 µM): 93%
residual activity (AURKB (human); compound 1.0 µM): 93%
residual activity (AURKB (human); compound 10.0 µM): 87%
residual activity (YES1 (human); compound 1.0 µM): 118%
residual activity (YES1 (human); compound 10.0 µM): 109%
residual activity (PRKAA1 or PRKAA2 (rat); compound 1.0 µM): 99%
residual activity (PRKAA1 or PRKAA2 (rat); compound 10.0 µM): 103%
residual activity (GCK (human); compound 1.0 µM): 106%
residual activity (GCK (human); compound 10.0 µM): 108%
residual activity (PKN2 (human); compound 1.0 µM): 121%
residual activity (PKN2 (human); compound 10.0 µM): 91%
residual activity (CHEK1 (human); compound 1.0 µM): 97%
residual activity (CHEK1 (human); compound 10.0 µM): 90%
residual activity (MAP3K1 (human); compound 1.0 µM): 106%
residual activity (MAP3K1 (human); compound 10.0 µM): 103%
residual activity (NEK2 (human); compound 1.0 µM): 107%
residual activity (NEK2 (human); compound 10.0 µM): 95%
residual activity (MAP3K5 (human); compound 10.0 µM): 99%
residual activity (MAPK1 (human); compound 1.0 µM): 95%
residual activity (MAPK1 (human); compound 10.0 µM): 97%
residual activity (NTRK1 (human); compound 1.0 µM): 103%
residual activity (NTRK1 (human); compound 10.0 µM): 112%
residual activity (PRKCA (human); compound 10.0 µM): 118%
residual activity (SRC (human); compound 1.0 µM): 123%
residual activity (SRC (human); compound 10.0 µM): 102%
residual activity (MKNK1 (human); compound 1.0 µM): 101%
residual activity (MKNK1 (human); compound 10.0 µM): 99%
residual activity (CAMKK2 (human); compound 1.0 µM): 97%
residual activity (CAMKK2 (human); compound 10.0 µM): 108%
residual activity (STK3 (human); compound 1.0 µM): 112%
residual activity (STK3 (human); compound 10.0 µM): 112%
